This is an account of results in US20060193893A1, “Medical devices” (ChemGenex Pharmaceuticals, Inc., priority 2005, published 2006).

The data set deals with chorioallantoic membrane (CAM). The experiment in a line: Effects of homoharringtonine in the early chicken chorioallantoic membrane (CAM) assay. It is filed as in vivo. To be noted: for CAM area, Day 4: Day 4 (start of treatment, matched groups); for CAM area, Day 4 / CAM increase (fold) / Artery length / CAM area, Day 5 / Relative artery length / Relative total vessel length / Relative vein length / Total vessel length / Vein length: mean ± SEM, n = 6; for CAM increase (fold): Day 4 to Day 5; for Artery length / CAM area, Day 5 / Relative artery length / Relative total vessel length / Relative vein length / Total vessel length / Vein length: Day 5. The protocol: Fertilized chicken eggs (HiChick Breeding Co, Kapunda, South Australia) were incubated for three days at 38° C. On Day 3 the embryos were cracked out of the egg and into a cup made of plastic piping, with plastic film stretched over the top to form a hammock for the egg to be suspended in. Two ml of DMEM containing penicillin and streptomycin was added to each cup prior to the egg being added. A Petri dish on the top maintained sterility. Incubation continued in a humidified 37° C. incubator.
On Day 4 the chorioallantoic membrane (CAM) begins to grow, and pictures were taken of each embryo at ×5 to measure the CAM area using image analysis software (Video Pro 32, Leading Edge Pty Ltd, South Australia). Embryos were then grouped according to their CAM area, with a control embryo in each for comparison. There were four matched embryos, treated with 6.25, 12.5 and 25 ng of homoharringtonine. Grouping is critical as in these early developmental stages changes in the CAM growth are dramatic. Relatively small differences in size on Day 4 translate to large differences in the CAM on Day 5, making it impossible to compare treatments. Substances were applied in methylcellulose discs, which were first dried under vacuum overnight. The methylcellulose discs were applied to the top of the CAM, and at the beginning of treatment were at least three to four-fold bigger than the CAM area, meaning treatment covered the entire CAM surface.
On Day 5 skim milk with contrast medium was injected into the CAM. Pictures were then taken at various levels of magnification up to ×63. Quantitative measurements were made from ×5 pictures. CAM area, and vein and artery lengths were measured using image analysis (Video Pro 32, Leading Edge Pty Ltd, South Australia). Relative vessel lengths were then calculated as the total length/CAM area. Statistical analysis was made using SigmaStat and OneWay ANOVA with p<0.05 as the level of significance.
FIG. 3A illustrates the normal organization of the CAM is uniform, with the major vein draining towards the left, and the artery branches coming over the edge of the top and bottom of the CAM. FIGS. 3B and 3C schematically illustrate tracing of the vein and artery branches, as performed for the measurement of vessel lengths.
The angiogenic inhibitor, homoharringtonine, was obtained from ChemGenex Therapeutics, Inc. (Menlo Park, Calif.) and was made to the appropriate concentration in sterile water. […] Homoharringtonine was applied at 6.25, 12.5 and 25 ng (11.3, 22.5 and 45 nM) doses, and compared with water treated controls. Homoharringtonine reduced the growth of the CAM to 42% of the control in the 25 ng treated CAM. […] The vein, artery and total vessel lengths were reduced to 15%, 18% and 17% of control, respectively.

Marks after values point to notes of the source that are not given here.

With `COC(=O)C[C@](O)(CCCC(C)(C)O)C(=O)O[C@@H]1C(OC)=C[C@]23CCCN2CCc2cc4c(cc2[C@H]13)OCO4` [Homoharringtonine, cephalotaxine, 4-methyl-2-hydroxy-2-(4-hydroxy-4-methylpentyl) butanediocate ester], for the setting “6.25 ng in methylcellulose disc”, the “CAM area, Day 4” value is given as 6.5 ± 1.6 pixels. Moreover, under “6.25 ng”, the “CAM increase (fold)” value was 7.0 ± 0.4 ^a fold; the Artery length is 1573 ± 516^ pixels; the “CAM area, Day 5” value was determined as 45.3 ± 11.6 pixels; the Relative artery length was 31.6 ± 4.5 ^a b length/CAM area. In addition, where the note is “6.25 ng”, the “Relative total vessel length” value is 63.2 ± 7.7 ^b length/CAM area, the Relative vein length is given as 31.6 ± 4.6 ^b length/CAM area, the Total vessel length was determined as 3055 ± 1003 pixels and the Vein length was 1482 ± 499^ pixels. Moreover, the “CAM area, Day 4” value (12.5 ng in methylcellulose disc) was 6.3 ± 1.6^ pixels. Moreover, under “12.5 ng”, the “CAM increase (fold)” value is 9.0 ± 1.0 ^b fold; the Artery length is on record as 1787 ± 544 ^ pixels; the “CAM area, Day 5” value was 53.0 ± 11.6^ pixels; the “Relative total vessel length” value is 60.1 ± 7.5 ^b length/CAM area. Further, where the note is “12.5 ng”, the Relative vein length is recorded as 28.3 ± 4.4 ^b length/CAM area, the Total vessel length was 3351 ± 953 ^ pixels and the Vein length is on record as 1564 ± 427 ^ pixels. For the same compound, the “embryo survival at 25 ng” value (25 ng dose) is recorded as “killed one of the smaller embryos”. In addition, under “25 ng group vs water control”, the “artery length, % of control” value came to 18%; the “total vessel length, % of control” value turned out to be 17%; the “vein length, % of control” value worked out at 15%. Also, the “CAM area, Day 4” value (25 ng in methylcellulose disc) turned out to be 6.2 ± 1.5 pixels. The “growth of the CAM, % of the control” value (25 ng treated CAM vs water control) turned out to be 42%. Besides, for the setting “25 ng”, the “CAM increase (fold)” value is 4.3 ± 0.7 ^a fold; the Artery length is given as 551 ± 265 ^a pixels; the “CAM area, Day 5” value is given as 30.2 ± 9.9 ^ pixels; the Relative artery length is recorded as 13.0 ± 4.3 ^a length/CAM area. In addition, under “25 ng”, the “Relative total vessel length” value is 24.3 ± 6.7 ^a length/CAM area, the Relative vein length is listed as 11.3 ± 3.5 ^a length/CAM area, the Total vessel length is 909 ± 396 ^a pixels and the Vein length is listed as 359 ± 143 ^a pixels. For the same compound, the “embryo survival at the initial doses” value (initial doses, above 25 ng, dose then reduced) was “resulted in the death of the embryos”.

On to `CC(=O)O[C@H]1C(=O)[C@@]2(C)[C@H]([C@H](OC(=O)c3ccccc3)[C@]3(O)C[C@H](OC(=O)[C@H](O)[C@@H](NC(=O)c4ccccc4)c4ccccc4)C(C)=C1C3(C)C)[C@]1(OC(C)=O)CO[C@@H]1C[C@@H]2O` [taxol], for which the “qualitative changes at higher magnification (FIG. 5)” value (homoharringtonine 25 ng, taxol dose not given, vs water control) was “diffuse leakage of the red blood cells outside the vessels and the skeletons of larger vessels with no remaining blood flow”.
